Measurements: PMC5182053 (Science Advances, 2016)

Biological target: α-enolase (Homo sapiens, UniProt P06733)
Assay: microscale thermophoresis with labeled recombinant protein
Format: binding

Chain of α-enolase (P06733 2-434): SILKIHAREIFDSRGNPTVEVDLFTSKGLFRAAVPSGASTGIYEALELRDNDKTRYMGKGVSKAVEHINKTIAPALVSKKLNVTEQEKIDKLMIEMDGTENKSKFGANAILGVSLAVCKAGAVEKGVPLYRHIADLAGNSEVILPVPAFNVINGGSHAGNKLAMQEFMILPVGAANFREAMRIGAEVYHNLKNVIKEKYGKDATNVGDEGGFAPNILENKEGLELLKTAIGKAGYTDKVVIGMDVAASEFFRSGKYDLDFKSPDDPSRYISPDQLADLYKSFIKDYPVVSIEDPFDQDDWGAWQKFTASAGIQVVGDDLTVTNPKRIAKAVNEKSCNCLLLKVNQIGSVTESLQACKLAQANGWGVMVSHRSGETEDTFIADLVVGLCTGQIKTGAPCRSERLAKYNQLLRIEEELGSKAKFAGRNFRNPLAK

Kd: 1250 nM
SMILES: CCOC(=O)Oc1c(OC)cc(C(=O)O[C@@H]2C[C@@H]3CN4CCc5c([nH]c6cc(OC)ccc56)[C@H]4C[C@@H]3[C@H](C(=O)OC)[C@H]2OC)cc1OC [syrosingopine]
